For the test, the system named is B16BL6 cells. Briefly: B16BL6 tumor model (Example 8). It counts as in vivo, mouse. The note with it: p.l. days 7-15, FIGS. 14A-B. The method, then:
Mice were maintained in pathogen-free conditions in a temperature-controlled environment with 12/12 hour light/dark cycles and received food and water ad libitum. Female C57BL/6J mice (Charles River Laboratories, Saint-Germain sur l'Arbresle, France) were inoculated with B16BL6 or MC38 or Panc02 cells, at the age of 8 weeks, using a 30G insulin syringe, in 50 μl suspension, on the shaved flank of briefly sedated mice (using 4% isoflurane). B16BL6 cells are a murine melanoma cell line that are typically used as a model for human skin cancers with increased resistance to doxorubicin. MC38 cells are derived from a murine colon adenocarcinoma and are typically used as a model for human colon cancers. Panc02 cells are derived from a murine pancreatic ductal adenocarcinoma and are typically used as a model for human pancreatic cancers.
All tumor treatments were done perilesionally (p.l.), which is s.c. at the tumor border, starting at day 7 after tumor inoculation. Mice received FAP-AFN or FAP-WTmIFN treatments on days 7, 8, 9, 10, 12, 13, 14 and 15. Control mice were treated with PBS on the same days. FAP-AFN or FAP-VVTmIFN were given about […] (1.8 mg/kg). […]

Structures are written as SMILES.

Take `COc1cccc2c1C(=O)c1c(O)c3c(c(O)c1C2=O)C[C@@](O)(C(=O)CO)C[C@@H]3O[C@H]1C[C@H](N)[C@H](O)[C@H](C)O1` [doxorubicin]: the tumor growth entry was “tumor stasis at best, but no tumor regression”.

These data come from patent US12576127B2, “Fibroblast binding agents and use thereof” (Orionis Biosciences, Inc., priority 2018, dated 2026).
